Data taken from patent US20210205329A1 (The University of North Carolina at Chapel Hill, priority 2018, published 2021).

Target: T1, TLR2/MD-2 interaction (Mus musculus, UniProt Q9QUN7)
T1 construct: endogenous in cells; host or cells: RAW264.7
Experiment: TLR2/MD-2 co-immunoprecipitation (negative control) in LPS-treated RAW264.7 cells
Format: cell-based
Conditions: 1.0 μM; LPS 1 μg/ml; 24 hrs post-treatment
Procedure: Co-Immunoprecipitation Assay RAW264.7 cells [treated with LPS (1 μg/ml), 3α,5α-THP (1 μM) or pregnenolone (1 μM)] were exposed to chemical protein crosslinking (Poulopoulos et al, 2009) at 24 hrs post-treatment. Briefly, the cells were incubated (20 min on ice) with 1 mM of the cleavable, membrane-permeable crosslinker DSP (Thermo Fisher Scientific, Cat. #PG82081). Rat VTA homogenates were incubated (20 min on ice) with 200 μM of DSP. The crosslinker was quenched in 1 M Tris buffer (pH 7.5) (to a final concentration of 10-20 mM), and the material was centrifuged at 21,000×g for 15 min. Proteins from the cells were extracted with Pierce IP Lysis Buffer (Thermo Fisher Scientific, Cat. #87787) supplemented with protease and phosphatase inhibitor cocktails (Sigma). Proteins from the VTA were extracted with CelLytic MT (dialyzable mild detergent, bicine and 150 mM NaCl; Sigma Aldrich, St. Louis, Mo., USA, Cat. #C3228) supplemented with protease and phosphatase inhibitor cocktails (Sigma) according to the manufacturers instructions. […]

T1 sequence (Q9QUN7 25-784): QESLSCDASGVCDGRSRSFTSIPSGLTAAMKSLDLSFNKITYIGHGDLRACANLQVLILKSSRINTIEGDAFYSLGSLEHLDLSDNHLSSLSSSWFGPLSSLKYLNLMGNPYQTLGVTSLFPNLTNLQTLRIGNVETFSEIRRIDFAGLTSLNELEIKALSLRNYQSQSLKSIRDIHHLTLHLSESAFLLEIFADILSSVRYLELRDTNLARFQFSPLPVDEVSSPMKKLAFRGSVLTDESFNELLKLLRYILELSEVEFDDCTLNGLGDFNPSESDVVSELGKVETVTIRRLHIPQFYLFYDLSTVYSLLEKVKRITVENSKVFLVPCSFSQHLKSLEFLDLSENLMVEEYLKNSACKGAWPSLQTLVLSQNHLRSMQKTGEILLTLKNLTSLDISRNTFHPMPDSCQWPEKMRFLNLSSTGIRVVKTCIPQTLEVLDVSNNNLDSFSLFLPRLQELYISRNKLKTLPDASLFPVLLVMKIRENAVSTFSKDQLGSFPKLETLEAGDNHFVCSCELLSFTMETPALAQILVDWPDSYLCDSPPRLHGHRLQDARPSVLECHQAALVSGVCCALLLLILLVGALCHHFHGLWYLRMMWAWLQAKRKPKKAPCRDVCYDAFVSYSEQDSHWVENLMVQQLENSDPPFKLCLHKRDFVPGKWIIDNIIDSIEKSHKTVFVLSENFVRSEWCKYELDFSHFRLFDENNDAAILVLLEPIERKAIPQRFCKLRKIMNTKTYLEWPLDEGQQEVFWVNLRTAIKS

SMILES	TLR2/MD-2 co-immunoprecipitation
CC(=O)[C@H]1CC[C@H]2[C@@H]3CC[C@H]4C[C@H](O)CC[C@]4(C)[C@H]3CC[C@]12C [3α,5α-THP, (3α,5α)3-hydroxypregnan-20-one]	not altered
CC(=O)[C@H]1CC[C@H]2[C@@H]3CC=C4C[C@@H](O)CC[C@]4(C)[C@H]3CC[C@]12C [pregnenolone]	not altered
